Assay results as given in publication PMC11859309, “Design, Synthesis, and Computational Evaluation of 3,4-Dihydroquinolin-2(1H)-One Analogues as Potential VEGFR2 Inhibitors in Glioblastoma Multiforme” (Pharmaceuticals, 2025).
Blank lines part the entries; values can stand above or below the compound they belong to.

What was measured:
[1] = test system: U138-MG glioblastoma cell line; assay: MTT cell proliferation assay, U138-MG; assay type: cell-based; details: for IC50 / inhibition at 10 µM / activity at 10 µM: Homo sapiens; for IC50 / activity at 10 µM: MTT; for IC50: 0–160 μM; for inhibition at 10 µM: read-out: cell inhibition percentage (activity); for activity at 10 µM: compound 10 μM, 48 h, read-out: Cell Proliferation ± Std dev. (%) U138
Protocol: (§1) U87-MG (HTB-16) and U138-MG (HTB-14) lines were purchased from ATCC. The cells were cultured in DMEM-HG Medium (41966-029, Gibco, Grand Island, NE, USA) and supplemented with 10% fetal bovine serum (FBS, 10500-064, Gibco) and 1% Penicillin–Streptomycin (P/S, 15140-122, Gibco). After 24 h of seeding cells, all compounds dissolved in 0.4% dimethyl sulfoxide (DMSO, A3672-0250, AppliChem, Darmstadt, Germany) were treated in the cells.
The proliferation effects of the drug candidates on the U87-MG and U138-MG cell lines were tested using the MTT (3-(4,5-dimethylthiazol-2-yl)-2,5-diphenyltetrazolium bromide) assay. A total of 7 × 10^3 cells per well of both U87-MG and U138-MG cells were seeded into a 96-well plate in triplicate for the assay. […] After the incubation period, 10 μL of MTT solution (5 mg/mL in PBS) was added to each well. The MTT solution was aspirated from the wells after 2 h. Then, 100 μL of DMSO was added and mixed to dissolve the formazan crystals. Cell proliferation was analysed by measuring the absorbance of the dissolved formazan at a wavelength of 570 nm using a microplate reader (Epoch, San Jose, CA, USA). […] Each experiment was carried out in triplicate to ensure reliability and statistical significance.

[2] = test system: U87-MG glioblastoma cell line; assay: MTT cell proliferation assay, U87-MG; assay type: cell-based; details: for IC50: 0–160 μM; for activity at 10 µM: compound 10 μM, 48 h, read-out: Cell Proliferation ± Std dev. (%) U87
Protocol: as §1
The proliferation effects of the drug candidates on the U87-MG and U138-MG cell lines were tested using the MTT (3-(4,5-dimethylthiazol-2-yl)-2,5-diphenyltetrazolium bromide) assay. A total of 7 × 10^3 cells per well of both U87-MG and U138-MG cells were seeded into a 96-well plate in triplicate for the assay. After 24 h, each compound was added at a dose of 10 μM and incubated for 48 h. After the incubation period, 10 μL of MTT solution (5 mg/mL in PBS) was added to each well. The MTT solution was aspirated from the wells after 2 h. Then, 100 μL of DMSO was added and mixed to dissolve the formazan crystals. Cell proliferation was analysed by measuring the absorbance of the dissolved formazan at a wavelength of 570 nm using a microplate reader (Epoch, San Jose, CA, USA). […] Each experiment was carried out in triplicate to ensure reliability and statistical significance.

[3] = PAMPA, BBB-mimicking membrane; assay type: in vitro ADME; details: 500 μM, 18 h, 37 °C
Protocol: (§2) The permeability of the synthesised compounds was evaluated using the parallel artificial membrane permeability assay (PAMPA) to estimate their ability to cross biological membrane mimics of both the gastrointestinal (GI) membrane and the blood–brain barrier (BBB).
(§3) The PAMPA assay (BioAssay System, Hayward, CA 94545, USA) has been used for testing the permeability rates of drugs through the BBB-mimicking membrane. […] The permeability assay was performed for 18 h in a 37 °C incubator.

[4] = PAMPA, GI-mimicking membrane; assay type: in vitro ADME; details: class relative to high and low permeability controls
Protocol: as §2, §3

[5] = equals 100 minus cell proliferation of Table 1 (10 μM, 48 h)

SMILES: O=C(COc1ccc2c(c1)CCC(=O)N2)N/N=C1\C(=O)Nc2ccc(F)cc21 [4m, (Z)-N′-(5-Fluoro-2-Oxoindolin-3-Ylidene)-2-((2-Oxo-1,2,3,4-Tetrahydroquinolin-6-Yl)Oxy)Acetohydrazide]
IC50 [1]: 4.2 µM

SMILES: O=C(COc1ccc2c(c1)CCC(=O)N2)N/N=C1\C(=O)Nc2ccc([N+](=O)[O-])cc21 [4o, (Z)-N′-(5-Nitro-2-Oxoindolin-3-Ylidene)-2-((2-Oxo-1,2,3,4-Tetrahydroquinolin-6-Yl)Oxy)Acetohydrazide]
cell inhibition percentage (activity) [1, 5]: moderate activity

SMILES: O=C(COc1ccc2c(c1)CCC(=O)N2)N/N=C/c1ccc(Cl)cc1 [4b, (E)-N′-(4-Chlorobenzylidene)-2-((2-Oxo-1,2,3,4-Tetrahydroquinolin-6-Yl) Oxy) Acetohydrazide]
inhibition at 10 µM [1, 5]: 40%

SMILES: O=C(COc1ccc2c(c1)CCC(=O)N2)N/N=C/c1ccc(-c2ccccc2)cc1 [4v, (E)-N′-([1,1′-Biphenyl]-4-Ylmethylene)-2-((2-Oxo-1,2,3,4-Tetrahydroquinolin-6-Yl)Oxy)Acetohydrazide]
IC50 ([2]; Homo sapiens, U-87 MG): 11.7 µM

SMILES: O=C(COc1ccc2c(c1)CCC(=O)N2)N/N=C/c1ccc(F)cc1 [4s, (E)-N′-(4-Fluorobenzylidene)-2-((2-Oxo-1,2,3,4-Tetrahydroquinolin-6-Yl)Oxy)Acetohydrazide]
Permeability through GI-mimicking membrane (class in words) [4]: high permeability

SMILES: CN1C(=O)/C(=N\NC(=O)COc2ccc3c(c2)CCC(=O)N3)c2cc(F)ccc21 [4l, (Z)-N′-(5-Fluoro-1-Methyl-2-Oxoindolin-3-Ylidene)-2-((2-Oxo-1,2,3,4-Tetrahydroquinolin-6-Yl)Oxy)Acetohydrazide]
activity at 10 µM [1]: 73 ± 3.6%

SMILES: O=C(COc1ccc2c(c1)CCC(=O)N2)N/N=C/c1ccc(-c2ccc(Cl)cc2)cc1 [4w, (E)-N′-((4′-Chloro-[1,1′-Biphenyl]-4-Yl)Methylene)-2-((2-Oxo-1,2,3,4-Tetrahydroquinolin-6-Yl)Oxy)Acetohydrazide]
activity at 10 µM ([2]; Homo sapiens, U-87 MG): 63 ± 2.5%
activity at 10 µM [1]: 80 ± 6.9%
inhibition at 10 µM [1, 5]: 20%

The next lines start with results.

IC50 ([2]; Homo sapiens, U-87 MG): 92.9 µM
IC50 [1]: 93.1 µM
Permeability through BBB-mimicking membrane (class in words) [3]: lower permeability
Permeability through GI-mimicking membrane (class in words) [4]: lower permeability
SMILES: Cn1nnc2c(C(N)=O)ncn2c1=O [TMZ, temozolomide, reference compound]
activity at 10 µM ([2]; Homo sapiens, U-87 MG): 80 ± 5%
activity at 10 µM [1]: 78 ± 5%

Permeability through GI-mimicking membrane (class in words) [4]: high permeability
SMILES: O=C(COc1ccc2c(c1)CCC(=O)N2)NN=Cc1cccs1 [4d, 2-((2-Oxo-1,2,3,4-Tetrahydroquinolin-6-Yl)Oxy)-N′-(Thiophen-2-Ylmethylene)Acetohydrazide]

IC50 ([2]; Homo sapiens, U-87 MG): 7.96 µM
SMILES: O=C(COc1ccc2c(c1)CCC(=O)N2)N/N=C/c1cccc2ccccc12 [4u, (E)-N′-(Naphthalen-1-Ylmethylene)-2-((2-Oxo-1,2,3,4-Tetrahydroquinolin-6-Yl)Oxy)Acetohydrazide]

Permeability through BBB-mimicking membrane (class in words) [3]: high permeability
SMILES: O=C(COc1ccc2c(c1)CCC(=O)N2)N/N=C/c1ccccc1 [4j, (E)-N′-Benzylidene-2-((2-Oxo-1,2,3,4-Tetrahydroquinolin-6-Yl)Oxy)Acetohydrazide]

IC50 [1]: 8 µM
SMILES: O=C(COc1ccc2c(c1)CCC(=O)N2)N/N=C/c1cnc(-c2ccc(Cl)cc2)nc1 [4q, (E)-N′-((2-(4-Chlorophenyl)Pyrimidin-5-Yl)Methylene)-2-((2-Oxo-1,2,3,4-Tetrahydroquinolin-6-Yl)Oxy)Acetohydrazide]
activity at 10 µM ([2]; Homo sapiens, U-87 MG): 67 ± 4.9%
activity at 10 µM [1]: 39 ± 3%
inhibition at 10 µM [1, 5]: 61%

IC50 [1]: 9.2 µM
SMILES: Cc1[nH]c2ccccc2c1/C=N/NC(=O)COc1ccc2c(c1)CCC(=O)N2 [4g, (E)-N′-((2-Methyl-1H-Indol-3-Yl)Methylene)-2-((2-Oxo-1,2,3,4-Tetrahydroquinolin-6-Yl)Oxy)Acetohydrazide]

IC50 [2]: 10.5 µM
IC50 ([2]; Homo sapiens, U-87 MG): 10.7 µM
Permeability through BBB-mimicking membrane (class in words) [3]: high permeability
SMILES: O=C(COc1ccc2c(c1)CCC(=O)N2)N/N=C/c1cccc(Oc2ccc(Cl)cc2)c1 [4t, (E)-N′-(3-(4-Chlorophenoxy)Benzylidene)-2-((2-Oxo-1,2,3,4-Tetrahydroquinolin-6-Yl)Oxy)Acetohydrazide]
activity at 10 µM ([2]; Homo sapiens, U-87 MG): 50 ± 3.2%
activity at 10 µM [1]: 65 ± 3.5%

Permeability through BBB-mimicking membrane (class in words) [3]: high permeability
SMILES: CCCc1ccc(/C=N/NC(=O)COc2ccc3c(c2)CCC(=O)N3)cc1 [4h, (E)-2-((2-Oxo-1,2,3,4-Tetrahydroquinolin-6-Yl)Oxy)-N′-(4-Propylbenzylidene)Acetohydrazide]
activity at 10 µM [1]: 100 ± 2.3%
inhibition at 10 µM [1, 5]: 0%
